Results reported in PMC3600154 (Nature, 2013).

Target: mouse CALHM1 (Mus musculus, UniProt D3Z291)
Details: permeant released through the channel; pH 7.4

Chain of mouse CALHM1 (D3Z291 whole entry): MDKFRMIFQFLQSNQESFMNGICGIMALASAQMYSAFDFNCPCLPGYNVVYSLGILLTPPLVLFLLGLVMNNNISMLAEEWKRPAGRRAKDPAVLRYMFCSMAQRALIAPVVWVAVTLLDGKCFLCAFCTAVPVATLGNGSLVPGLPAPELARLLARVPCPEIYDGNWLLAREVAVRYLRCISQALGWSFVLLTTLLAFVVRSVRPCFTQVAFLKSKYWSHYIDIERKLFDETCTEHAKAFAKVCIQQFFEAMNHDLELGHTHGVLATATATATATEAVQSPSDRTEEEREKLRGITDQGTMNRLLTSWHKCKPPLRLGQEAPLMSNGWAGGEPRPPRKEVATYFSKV

## Nc1ncnc2c1ncn2[C@@H]1O[C@H](COP(=O)(O)OP(=O)(O)OP(=O)(O)O)[C@@H](O)[C@H]1O [ATP, adenosine 5′-triphosphate]
  luciferin-luciferase ATP release assay, transfected HeLa cells: Expression of mouse CALHM1 conferred ATP release with similar properties
